Thermal diffusivity data for two compounds are collected here from the NIST ThermoML archive (doi:10.1016/j.tca.2015.09.017).

The conditions of the data set: 101.33 kPa, Liquid, Photoacoustic measurements.

Numbers after ± are expanded uncertainties.

For the compound `O` [water], the thermal diffusivity (298.15 K) turned out to be 1.49e-07 ± 6e-09 m2/s; the thermal diffusivity (308.15 K) came out at 1.53e-07 ± 6e-09 m2/s; the thermal diffusivity (318.15 K) was found to be 1.56e-07 ± 6e-09 m2/s; the thermal diffusivity (328.15 K) worked out at 1.59e-07 ± 6e-09 m2/s; the thermal diffusivity (338.15 K) was 1.61e-07 ± 6e-09 m2/s.
In the same order, the values of `OCCO` [1,2-ethanediol] are 9.84e-08 ± 3.9e-09 m2/s, 9.73e-08 ± 3.9e-09 m2/s, 9.68e-08 ± 3.9e-09 m2/s, 9.49e-08 ± 3.8e-09 m2/s and 9.42e-08 ± 3.8e-09 m2/s.
